According to ChEMBL document CHEMBL2331218, “Synthesis, biological evaluation, 3D-QSAR studies of novel aryl-2H-pyrazole derivatives as telomerase inhibitors” (Bioorg Med Chem Lett, 2013):

Experiments:
[1] = system: B16-F10; assay: Anticancer activity against mouse B16F10 cells assessed as cell survival measured after 48 hrs by MTT assay; type: functional, cell-based; settings: B16-F10, 48 h
[2] = target: Telomerase reverse transcriptase (Homo sapiens, UniProt O14746); assay: Inhibition of telomerase in human SGC7901 cells by TRAP assay; type: cell-based, SGC-7901
[3] = system: SGC-7901; assay: Anticancer activity against human SGC7901 cells assessed as cell survival measured after 48 hrs by MTT assay; type: functional, cell-based; settings: SGC-7901, 48 h

Telomerase reverse transcriptase, sequence (O14746 whole entry): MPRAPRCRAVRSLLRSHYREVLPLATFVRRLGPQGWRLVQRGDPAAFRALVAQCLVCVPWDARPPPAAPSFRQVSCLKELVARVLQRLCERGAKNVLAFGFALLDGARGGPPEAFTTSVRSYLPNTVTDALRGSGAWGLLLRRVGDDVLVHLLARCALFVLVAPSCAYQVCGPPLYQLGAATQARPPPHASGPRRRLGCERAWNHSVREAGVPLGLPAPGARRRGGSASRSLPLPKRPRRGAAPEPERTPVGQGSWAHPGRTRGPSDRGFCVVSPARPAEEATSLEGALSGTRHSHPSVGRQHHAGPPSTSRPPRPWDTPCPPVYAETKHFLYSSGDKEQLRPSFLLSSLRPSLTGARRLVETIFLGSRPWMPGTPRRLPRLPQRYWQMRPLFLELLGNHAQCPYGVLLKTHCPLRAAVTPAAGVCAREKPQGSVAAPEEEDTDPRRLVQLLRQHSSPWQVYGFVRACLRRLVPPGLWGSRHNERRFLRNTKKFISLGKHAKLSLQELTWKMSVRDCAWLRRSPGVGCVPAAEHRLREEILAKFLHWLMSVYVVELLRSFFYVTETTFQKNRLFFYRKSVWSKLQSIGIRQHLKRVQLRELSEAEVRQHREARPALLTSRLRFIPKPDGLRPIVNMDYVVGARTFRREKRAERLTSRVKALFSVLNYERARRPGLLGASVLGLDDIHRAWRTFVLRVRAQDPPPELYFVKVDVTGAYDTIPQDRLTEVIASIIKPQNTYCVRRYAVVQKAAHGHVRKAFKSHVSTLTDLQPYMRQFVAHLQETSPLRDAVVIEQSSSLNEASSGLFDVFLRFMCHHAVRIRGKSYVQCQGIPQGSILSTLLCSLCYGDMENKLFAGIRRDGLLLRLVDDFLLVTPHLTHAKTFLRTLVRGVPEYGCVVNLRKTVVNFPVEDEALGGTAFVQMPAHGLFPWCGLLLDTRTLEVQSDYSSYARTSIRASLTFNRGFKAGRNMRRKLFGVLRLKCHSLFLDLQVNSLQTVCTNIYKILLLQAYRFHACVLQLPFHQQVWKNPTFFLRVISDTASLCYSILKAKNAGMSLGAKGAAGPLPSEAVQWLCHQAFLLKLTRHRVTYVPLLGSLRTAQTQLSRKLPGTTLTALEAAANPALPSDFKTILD

Work on `CC(=O)N1N=C(c2ccc([N+](=O)[O-])cc2)CC1c1ccc2c(c1)OCCO2` (stereo not given) yielded an IC50 [1] of 57.8 µM, an IC50 [2] of 37.4 µM and an IC50 [3] of 70 µM.

`CC(=O)N1N=C(c2ccc(F)cc2)CC1c1ccc2c(c1)OCO2` (stereo not given) gave an IC50 [1] of 22.2 µM, an IC50 [2] of 7.3 µM and an IC50 [3] of 40.9 µM.

`CC(=O)N1N=C(c2ccccc2)CC1c1ccc2c(c1)OCCCO2` (stereo not given) was tested, and the IC50 [2] was 68.3 µM.

`CC(=O)N1N=C(c2ccc(Cl)cc2)CC1c1ccc2c(c1)OCO2` (stereo not given) gave an IC50 [1] of 20.8 µM, an IC50 [2] of 6.7 µM and an IC50 [3] of 35.3 µM.

For `CC(=O)N1N=C(c2ccc(Cl)cc2)CC1c1ccc2c(c1)OCCO2` (stereo not given), the IC50 [1] was 47.3 µM, the IC50 [2] was 23.8 µM and the IC50 [3] was 59.5 µM.

With `CC(=O)N1N=C(c2ccccc2)CC1c1ccc2c(c1)OCO2` (stereo not given) the IC50 [1] was 14 µM, the IC50 [2] was 3.4 µM and the IC50 [3] was 25.7 µM.

`CC(=O)N1N=C(c2ccc(Cl)cc2)CC1c1ccc2c(c1)OCCCO2` (stereo not given) was tested, and the IC50 [2] was 82.6 µM.

For `CC(=O)N1N=C(c2ccc(F)cc2)CC1c1ccc2c(c1)OCCO2` (stereo not given), the IC50 [1] was 53.1 µM, the IC50 [2] was 25.7 µM and the IC50 [3] was 68.4 µM.

In the case of `COc1ccc(C2=NN(C(C)=O)C(c3ccc4c(c3)OCO4)C2)cc1` (stereo not given), the IC50 [1] is reported as 5.34 µM, the IC50 [2] is reported as 0.9 µM and the IC50 [3] is reported as 18.1 µM.

With `CC(=O)N1N=C(c2ccccc2)CC1c1ccc2c(c1)OCCO2` (stereo not given) the IC50 [1] was 39.5 µM, the IC50 [2] was 18.5 µM and the IC50 [3] was 50.2 µM.

With `COc1ccc(C2=NN(C(C)=O)C(c3ccc4c(c3)OCCCO4)C2)cc1` (stereo not given) the IC50 [1] was 85.3 µM, the IC50 [2] was 46.7 µM and the IC50 [3] was 94 µM.

In the case of `CC(=O)N1N=C(c2ccc([N+](=O)[O-])cc2)CC1c1ccc2c(c1)OCCCO2` (stereo not given), the IC50 [2] is reported as 93.2 µM.

In the case of `CC(=O)N1N=C(c2ccc(Br)cc2)CC1c1ccc2c(c1)OCCCO2` (stereo not given), the IC50 [1] is reported as 97 µM and the IC50 [2] is reported as 76.4 µM.

`O=c1[nH]cc(F)c(=O)[nH]1` [FLUOROURACIL] showed an IC50 [1] of 21.4 µM and an IC50 [3] of 46.4 µM.

In the case of `CC(=O)N1N=C(c2ccc(Br)cc2)CC1c1ccc2c(c1)OCCO2` (stereo not given), the IC50 [1] is reported as 44.1 µM, the IC50 [2] is reported as 22.9 µM and the IC50 [3] is reported as 52.3 µM.

`CC(=O)N1N=C(c2ccc(C)cc2)CC1c1ccc2c(c1)OCCO2` (stereo not given) gave an IC50 [1] of 37.9 µM, an IC50 [2] of 13.4 µM and an IC50 [3] of 49.2 µM.

For `CC(=O)N1N=C(c2ccc(Br)cc2)CC1c1ccc2c(c1)OCO2` (stereo not given), the IC50 [1] was 18.9 µM, the IC50 [2] was 6.2 µM and the IC50 [3] was 30.1 µM.

`CC(=O)N1N=C(c2ccc(C)cc2)CC1c1ccc2c(c1)OCO2` (stereo not given) showed an IC50 [1] of 12.8 µM, an IC50 [2] of 1.3 µM and an IC50 [3] of 21.2 µM.

`COc1ccc(C2=NN(C(C)=O)C(c3ccc4c(c3)OCCO4)C2)cc1` (stereo not given) gave an IC50 [1] of 31.7 µM, an IC50 [2] of 10.6 µM and an IC50 [3] of 45.8 µM.

For `CC(=O)N1N=C(c2ccc(F)cc2)CC1c1ccc2c(c1)OCCCO2` (stereo not given), the IC50 [2] was 83.6 µM.

`CC(=O)N1N=C(c2ccc(C)cc2)CC1c1ccc2c(c1)OCCCO2` (stereo not given) was tested, and the IC50 [1] was 89.7 µM and the IC50 [2] was 54.9 µM.

For `CC(=O)N1N=C(c2ccc([N+](=O)[O-])cc2)CC1c1ccc2c(c1)OCO2` (stereo not given), the IC50 [1] was 24.7 µM, the IC50 [2] was 8.7 µM and the IC50 [3] was 41.9 µM.
